Measured values taken from patent EP4775582A1, “MACROCYCLIC COMPOUND AND ANTIBODY-DRUG CONJUGATE THEREOF” (Genfleet Therapeutics (Shanghai) Inc., priority 2023, dated 2025).

Key:
[1] = Human liver microsomal stability experiment; type: in vitro ADME; details: human liver microsomes, NADPH, 37 °C
Protocol: This experiment was intended to investigate the metabolic stability of the test compounds in human liver microsomes. The materials used in the experiment included 10 mM solutions of the test compounds and the control sample, human liver microsomes, and reduced nicotinamide adenine dinucleotide phosphate (NADPH) powder. In the experiment, a 100 mM potassium phosphate buffer was used as the buffer system.
The liver microsome working solution was prepared by diluting the liver microsome stock solution to 0.75 mg/mL using the 100 mM potassium phosphate buffer. Then, 5 µL of the 10 mM stock solution of the test compound was taken, and 195 µL of methanol was added. The mixture was well mixed to prepare a working solution A with a concentration of 0.25 mM. Subsequently, the working solution A was diluted to 1.5 µM using the liver microsome working solution to prepare a compound-liver microsome mixed solution. Additionally, NADPH powder was dissolved in 100 mM potassium phosphate buffer to prepare a 6 mM NADPH solution. The compound-liver microsome mixed solution was dispensed into a 96-well plate at 30 µL/well, with labeled time points of 0 min, 30 min, and 60 min. For 0-min samples, 180 µL of acetonitrile containing 100 ng/mL tolbutamide and 15 µL of the NADPH solution were added directly. The 96-well plate and the NADPH solution were then preheated under a 37 °C water bath for 5 min. After the preheating, 15 µL of the NADPH solution was added to each of the 30-min and 60-min sample wells. The plate was gently shaken for mixing and then incubated under the 37 °C water bath for the corresponding time. After the incubation was completed, 180 µL of acetonitrile containing 100 ng/mL tolbutamide was added to each sample well. The plate was sealed with a sealing film, shaken for 10 min (800 rpm/min), and then centrifuged for 15 min (4000 rpm). After the centrifugation, 50 µL of the supernatant was taken and added to a 96-well plate containing 150 µL of deionized water, and then the plate was sealed and shaken for 10 min (800 rpm) for uniform mixing. Subsequently, sample analysis was performed using liquid chromatography-tandem mass spectrometry (LC-MS/MS). […] For humans, the microsome protein-to-liver weight ratio was 45 mg/g, and the liver-to-body weight ratio was 20.7 g/kg.

H441 p-ERK = test: Cell p-ERK assay (HTRF), NCI-H441 cells; type: cell-based, human; details: NCI-H441 cells (KRAS G12V), 3 h incubation
In short: (§1)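 AsPC-1 (10000/well) or NCI-H441 (20000/well) cells were seeded overnight and then exposed to compound for 3 h at 37 °C. Lysates were probed for ERK phospho-T202/Y204 by HTRF with a 4-hour antibody incubation. IC50 values came from four-parameter fits of inhibition against log concentration.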

KRAS WT-cRAF = KRAS WT-cRAF (Homo sapiens, UniProt P01116+P62937); test: Assay for binding of KRAS to cRAF (HTRF, with Cyclophilin A), KRAS WT; details: read-out: KRAS WT-cRAF binding assay, GPPNP-KRAS WT, IC50 values
KRAS WT-cRAF, sequence (P01116 1-188 isoform P01116-2): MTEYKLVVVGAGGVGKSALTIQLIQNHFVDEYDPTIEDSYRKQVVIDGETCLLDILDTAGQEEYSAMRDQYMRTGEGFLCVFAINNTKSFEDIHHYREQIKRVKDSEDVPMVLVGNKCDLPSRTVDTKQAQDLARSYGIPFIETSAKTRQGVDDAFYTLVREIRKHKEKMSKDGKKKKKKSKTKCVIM
KRAS WT-cRAF, sequence (P62937 whole entry): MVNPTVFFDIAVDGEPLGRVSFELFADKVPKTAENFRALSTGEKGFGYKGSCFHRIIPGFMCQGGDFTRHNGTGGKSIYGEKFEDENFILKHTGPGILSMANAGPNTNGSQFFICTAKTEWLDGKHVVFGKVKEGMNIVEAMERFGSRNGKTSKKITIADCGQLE
Protocol: (§3) The plate was centrifuged at 1000 rpm for 1 min and then incubated in the thermostatic incubator at 20 °C for 30 min. […] The plate was centrifuged at 1000 rpm for 1 min and then incubated in the thermostatic incubator at 20 °C for 60 min. […] The working solution was added to the aforementioned assay plate at 5 µL/well. The plate was centrifuged at 1000 rpm for 1 min and then incubated in the thermostatic incubator at 20 °C for 60 min.

[2] = Solubility experiment (HPLC, external standard); type: physicochemical; details: pH 7.4 medium, 37 °C, 24 h
In short: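 Solid compound (about 1 mg per 1 mL medium) was shaken at 37 °C for 24 h in pH 1.2, 4.5 or 7.4 media, then centrifuged and the supernatant diluted with acetonitrile/water 50/50. Concentration in μg/mL was found by HPLC against an external standard prepared from a DMSO stock.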

AsPC-1 cells = test: 3D cell proliferation assay (CellTiter Glo-3D), AsPC-1; type: cell-based, human; details: AsPC-1 cells (KRAS G12D), 3D, 2% FBS, 5 days; read-out: AsPC-1 AP IC50
In short: (§2)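 Cells seeded at 800 per well (AsPC-1, NCI-H441) in 2% FBS medium and incubated overnight at 37 °C, 5% CO2. Compounds added next day from 10× stock, then 5 days' further culture. Viability read by CellTiter-Glo luminescence; IC50 from four-parameter fit of inhibition versus log concentration.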

KRAS G12V-cRAF = KRAS G12V-cRAF (Homo sapiens, UniProt P01116+P62937, G12V); test: Assay for binding of KRAS to cRAF (HTRF, with Cyclophilin A), KRAS G12V; details: read-out: KRAS G12V-cRAF binding assay, GPPNP-KRAS G12V, IC50 values
KRAS G12V-cRAF, sequence (P01116 1-188 isoform P01116-2 G12V): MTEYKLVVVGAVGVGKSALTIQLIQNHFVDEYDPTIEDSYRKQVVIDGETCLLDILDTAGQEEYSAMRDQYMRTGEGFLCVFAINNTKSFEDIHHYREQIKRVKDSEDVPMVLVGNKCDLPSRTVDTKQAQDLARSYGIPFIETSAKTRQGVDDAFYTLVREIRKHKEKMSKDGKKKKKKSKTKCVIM
KRAS G12V-cRAF, sequence (P62937 whole entry): as the sequence (P62937 whole entry) above
Protocol: as §3

AsPC-1 p-ERK = test: Cell p-ERK assay (HTRF), AsPC-1 cells; type: cell-based, human; details: AsPC-1 cells (KRAS G12D), 3 h incubation; read-out: AsPC-1 p-ERK IC50
In short: as §1

NCI-H441 cells = test: 3D cell proliferation assay (CellTiter Glo-3D), NCI-H441; type: cell-based, human; details: NCI-H441 cells (KRAS G12V), 2% FBS, 5 days, read-out: H441 AP IC50
In short: as §2

T1/2 [1]: 19.6 min | IC50 (H441 p-ERK): 0.2 nM | IC50 (KRAS WT-cRAF): 38.9 nM | Solubility at pH 7.4 (µg/mL) [2]: 26.76 µg/mL | IC50 (AsPC-1 cells): 0.12 nM | IC50 (KRAS G12V-cRAF): 12.9 nM | IC50 (AsPC-1 p-ERK): 0.1 nM | IC50 (NCI-H441 cells): 0.37 nM
SMILES: CCn1c(-c2cc(C#CCN3CCC(C#N)(CN)CC3)cnc2[C@H](C)OC)c2c3cc(ccc31)-c1coc(n1)C[C@H](NC(=O)[C@H]1[C@@H]3COC[C@@H]31)C(=O)N1CCC[C@H](N1)C(=O)OCC(C)(C)C2 (atropisomer, axis not shown; (Ra)) [Compound Z166, (1R,5S,6r)-N-((6^3S,4S,Z)-(Ra)-1^2-(5-(3-(4-(aminomethyl)-4-cyanopiperidin-1-yl)prop-1-yn-1-yl)-2-((S)-1-methoxyethyl)pyridin-3-yl)-1^1-ethyl-10,10-dimethyl-5,7-dioxo-6^1,6^2,6^3,6^4,6^5,6^6-hexahydro-1^1H-8-oxa-2(4,2)-oxazola-1(5,3)-indola-6(1,3)-pyridazinacycloundecaphane-4-yl)-3-oxabicyclo[3.1.0]hexane-6-carboxamide]
